These results are taken from ChEMBL document CHEMBL1143206, “Carbonic anhydrase inhibitors: copper(II) complexes of polyamino-polycarboxylamido aromatic/heterocyclic sulfonamides are very potent inhibitors of the tumor-associated isoforms IX and XII” (Bioorg Med Chem Lett, 2008).

SMILES strings stand for the structures.

The target in one assay is Carbonic anhydrase 9 (Homo sapiens, UniProt Q16790).
Description: Inhibition of human recombinant CA9 by CO2 hydration stopped flow assay
A word on the Ki: it is a dissociation constant, usually derived from enzyme kinetics or from competition with a known ligand. `NS(=O)(=O)c1ccc(CCNC(=O)CN(CCN(CCN(CC(=O)O)CC(=O)NCCc2ccc(S(N)(=O)=O)cc2)CC(=O)O)CC(=O)O)cc1` showed a Ki of 7.5 nM.
As to `O=C1NS(=O)(=O)c2ccccc21` [SACCHARIN], the Ki is 103 nM.
`NS(=O)(=O)c1ccc(CNC(=O)CN(CCN(CC(=O)O)CC(=O)NCc2ccc(S(N)(=O)=O)cc2)CC(=O)O)cc1` came in with a Ki of 7.3 nM.
Same read-out and setting: next, `NS(=O)(=O)c1nnc(NC(=O)CN(CCN(CCN(CC(=O)O)CC(=O)Nc2nnc(S(N)(=O)=O)s2)CC(=O)O)CC(=O)O)s1`: 8.3 nM; `NS(=O)(=O)c1ccc(CNC(=O)CN(CCN(CCN(CC(=O)O)CC(=O)NCc2ccc(S(N)(=O)=O)cc2)CC(=O)O)CC(=O)O)cc1`: 8.7 nM; `NS(=O)(=O)c1ccc(CCNC(=O)CN(CCN(CC(=O)O)CC(=O)NCCc2ccc(S(N)(=O)=O)cc2)CC(=O)O)cc1`: 8.2 nM.
`NS(=O)(=O)c1ccc(NC(=O)CN(CCN(CCN(CC(=O)O)CC(=O)Nc2ccc(S(N)(=O)=O)cc2)CC(=O)O)CC(=O)O)cc1` gave a Ki of 8.4 nM.
The same measure, in the same setting: next, `NS(=O)(=O)c1ccc(NC(=O)CN(CCN(CC(=O)O)CC(=O)Nc2ccc(S(N)(=O)=O)cc2)CC(=O)O)cc1`: 7.8 nM; `NS(=O)(=O)c1cccc(NC(=O)CN(CCN(CC(=O)O)CC(=O)Nc2cccc(S(N)(=O)=O)c2)CC(=O)O)c1`: 7.9 nM.
In the case of `NS(=O)(=O)c1cccc(NC(=O)CN(CCN(CCN(CC(=O)O)CC(=O)Nc2cccc(S(N)(=O)=O)c2)CC(=O)O)CC(=O)O)c1`, the affinity corresponds to a Ki of 9.6 nM.
The same measure, in the same setting: next, `NS(=O)(=O)c1nnc(NC(=O)CN(CCN(CC(=O)O)CC(=O)Nc2nnc(S(N)(=O)=O)s2)CC(=O)O)s1`: 8.5 nM.

The target in a further assay is Carbonic anhydrase 12 (Homo sapiens, UniProt O43570).
Chain of Carbonic anhydrase 12 (O43570 whole entry): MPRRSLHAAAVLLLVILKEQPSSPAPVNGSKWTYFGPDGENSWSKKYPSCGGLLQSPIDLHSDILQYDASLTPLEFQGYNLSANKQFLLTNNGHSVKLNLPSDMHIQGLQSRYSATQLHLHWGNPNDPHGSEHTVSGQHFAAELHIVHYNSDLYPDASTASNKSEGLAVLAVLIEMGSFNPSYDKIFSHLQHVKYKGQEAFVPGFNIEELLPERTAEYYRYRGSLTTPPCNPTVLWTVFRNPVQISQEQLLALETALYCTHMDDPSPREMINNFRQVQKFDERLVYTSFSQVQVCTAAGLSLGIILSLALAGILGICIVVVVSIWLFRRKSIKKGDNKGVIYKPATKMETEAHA
Description: Inhibition of human recombinant CA12 by CO2 hydration stopped flow assay
As to `O=C1NS(=O)(=O)c2ccccc21` [SACCHARIN], the Ki was found to be 633 nM.
